Assay results: article PMC4506562 (Chemmedchem, 2014)

Target: T1, hsolAC (human soluble adenylate cyclase) (Homo sapiens, UniProt Q96PN6)
T1 sequence (Q96PN6 1-469): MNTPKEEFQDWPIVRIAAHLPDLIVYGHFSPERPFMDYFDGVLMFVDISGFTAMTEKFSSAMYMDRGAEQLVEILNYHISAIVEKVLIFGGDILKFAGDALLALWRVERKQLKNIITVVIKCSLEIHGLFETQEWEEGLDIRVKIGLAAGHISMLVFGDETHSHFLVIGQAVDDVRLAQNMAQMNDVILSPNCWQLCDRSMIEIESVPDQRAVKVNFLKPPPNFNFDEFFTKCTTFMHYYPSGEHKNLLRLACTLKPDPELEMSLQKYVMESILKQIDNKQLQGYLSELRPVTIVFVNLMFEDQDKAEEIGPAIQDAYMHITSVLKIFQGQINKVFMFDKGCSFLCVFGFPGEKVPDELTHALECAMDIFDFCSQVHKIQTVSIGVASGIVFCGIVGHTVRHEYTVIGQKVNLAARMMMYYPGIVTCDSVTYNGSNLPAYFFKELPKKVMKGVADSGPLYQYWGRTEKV
Assay: Bridge-It cAMP fluorescence assay
Type: biochemical

With Cc1n[nH]cc1-c1ccc(F)cc1 [compound 1, 4-(4-Fluorophenyl)-3-methyl-1H-pyrazole] the IC50 was greater than 1000 µM.
